Source: patent US20060223812A1, “Treating neurodegenerative conditions” (MAX-PLANCK-GESELLSCHAFT ZUR FORDERUNGDER WISSENSCHAFTEN, …, priority 2004, published 2006)

Target: htau40 and tubulin dimer (Homo sapiens, UniProt P10636)
Test: Light scattering, tau-promoted microtubule assembly
Format: biochemical
Conditions: 60 μM compound, 10 μM tau, 30 μM tubulin
Description: The repeat domain of tau is not only important for PHF aggregation but also for the physiological function of microtubule binding. Microtubule polymerisation assays were performed in the absence and presence of compounds (FIG. 9).
The ability of tau to promote microtubule assembly was monitored by light scattering at 350 nm in a Tecan spectrophotometer model Safire (Tecan, Crailsheim, Germany). Tau protein (10 μM) was mixed with tubulin dimer (30 μM) and GTP (1 mM) at 4° C. in polymerisation buffer (100 mM Na-PIPES pH 6.9, 1 mM EGTA, 1 mM MgSO4, 1 mM DTT), with a final volume of 40 μl. Htau40 and inhibitor compounds (60 μM) were added last. After rapid mixing, the samples were pipetted into a Greiner transparent flat bottom 384 well plate (4 mm path length), which was prewarmed at 37° C. The reaction was started by incubating the cooled components of the reaction at 37° C. The assembly of tubulin into microtubules was monitored over time by a change in turbidity. Three parameters were extracted from curves. The maximum turbidity at steady state, the rate of assembly, and the lag time between the temperature jump and the start of the turbidity rise.
FIG. 9: Effect of compounds on microtubule binding 30 μM tubulin dimer was incubated in a microtiter plate at 37° C. in the absence and presence of htau40 (10 μM) and 60 μM compound. Absorbance was taken at 350 nm and plotted versus time. […]

Chain of htau40 and tubulin dimer (P10636 1-441 isoform P10636-8): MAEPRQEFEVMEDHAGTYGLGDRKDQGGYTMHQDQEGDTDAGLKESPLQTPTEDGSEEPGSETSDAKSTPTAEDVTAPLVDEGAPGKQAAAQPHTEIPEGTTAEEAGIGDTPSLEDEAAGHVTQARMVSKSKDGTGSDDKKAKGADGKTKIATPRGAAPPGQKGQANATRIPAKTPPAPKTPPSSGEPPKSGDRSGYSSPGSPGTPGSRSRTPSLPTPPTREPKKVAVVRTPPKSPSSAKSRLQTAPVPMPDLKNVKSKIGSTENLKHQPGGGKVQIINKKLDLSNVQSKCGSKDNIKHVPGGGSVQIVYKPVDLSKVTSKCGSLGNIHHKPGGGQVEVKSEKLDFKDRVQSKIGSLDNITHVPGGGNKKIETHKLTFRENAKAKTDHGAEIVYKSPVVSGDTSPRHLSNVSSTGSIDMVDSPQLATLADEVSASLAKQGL

Structure (SMILES): Nc1c(/N=N/c2ccc(-c3ccc(/N=N/c4cc(S(=O)(=O)O)c5ccccc5c4N)cc3)cc2)cc(S(=O)(=O)O)c2ccccc12 [Congo Red]
- rate and extent of microtubule polymerisation: not significantly affected
